{"source": "patent US20110008328A1", "about": "“METHOD FOR CONTROLLING GLUCOSE UPTAKE AND INSULIN SENSITIVITY” (Pfizer Inc., priority 2007, published 2011)", "key": {"[1]": {"test": "Hyperinsulinemic euglycemic clamp in Zucker rats (rate of glucose disposal, Rd)", "type": "in vivo, rat", "conditions": "obese Zucker (fa/fa) rats, post-Rx, pioglitazone 10 mg/kg/day in chow for 3 weeks; average ± standard error", "procedure": "Peripheral insulin sensitivity (measured as the rate of glucose disposal, Rd) of the rat and human groups was measured using the hyperinsulinemic euglycemic clamp procedure. Clinical characteristics of the rats and humans are detailed in Table 1. OPN expression in adipose tissue was elevated in obese, insulin resistant rats (17-fold) and humans (4.6-fold) compared to insulin sensitive lean controls. […] In fact, when the pre-treatment patient data was combined, there was a significant correlation between adipose tissue OPN RNA levels and Rd (FIG. 1C).\nMale C57Bl/6J WT mice (cat #000664) and OPN KO mice (B6.Cg-Spp1tm2blh/J, cat #004936) were purchased from Jackson Laboratories. […]\n(§1) Insulin sensitivity was determined by hyperinsulinemic euglycemic clamp, as previously published (Hevener, A L, et al., 2001, Diabetes 50, 2316-2322). […] Plasma glucose specific activity was measured after deproteinization with barium hydroxide and zinc sulfate (Revers, R R, 1984, J Clin Invest 73, 664-672). Hepatic glucose output (HGO) and glucose disposal rate (GDR) were calculated for the basal period and the steady-state portion of the glucose clamp using the Steele equation for steady-state conditions (Steele R. Influences of glucose loading and of injected insulin on hepatic glucose output. Ann N Y Acad Sci 82: 420-430, 1959). […]"}, "[2]": {"test": "Body weight and fasting plasma analyses in Zucker rats", "type": "in vivo, rat", "conditions": "obese Zucker (fa/fa) rats, post-Rx, pioglitazone 10 mg/kg/day in chow for 3 weeks; average ± standard error", "excerpt": "Male C57Bl/6J WT mice (cat #000664) and OPN KO mice (B6.Cg-Spp1tm2blh/J, cat #004936) were purchased from Jackson Laboratories. This OPN KO mouse line has been backcrossed into the C57Bl/6J background >10 generations. Mouse diets were as follows: normal chow diet (12% kcal from fat; Purina 5001, LabDiet) and high fat diet (41% kcal from fat; TD96132, Harlan Teklad). Mice were 4-6 months of age and age-matched in all studies. Male lean Zucker (fa/+) and fatty Zucker (fa/fa) rats were purchased from Charles River. […] All rats were nine weeks of age at time of terminal metabolic studies and tissue harvest. All animals were housed 1-3 per cage under controlled light (12:12 light:dark) and climate conditions. Animals had unlimited access to food and water.\nas §1\nPlasma insulins were measured by radioimmune assay kit (Linco Research, St. Charles, Mo.). Plasma FFA levels were measured enzymatically using a commercially available kit (NEFA C; Wako Chemicals USA). Triglycerides were measured using the Triglyceride-SL Assay (Diagnostic Chemicals Ltd.). Cholesterol was measured using the Chol kit and Roche/Hitachi analyzer (Roche). Tissue lysates were analyzed by SDS-PAGE, western blotting and chemiluminescence and by ELISA. Signal intensities of chemiluminescence autoradiographs were densitometrically quantified using a digital Kodak 3D Imagestation and associated digital image analysis software (Kodak, New. Haven, Conn.). […]"}, "[3]": {"test": "Hyperinsulinemic-euglycemic clamp in human patients (rate of glucose disposal, Rd)", "type": "in vivo", "conditions": "obese, insulin resistant patients, post-Rx, pioglitazone 45 mg/day for 3 months; average ± standard error"}, "[4]": {"test": "BMI and fasting plasma analyses in human patients", "type": "in vivo", "conditions": "post-Rx, pioglitazone 45 mg/day for 3 months, average ± standard error", "procedure": "Baseline plasma samples were drawn and hyperinsulinemic-euglycemic clamps were performed in the morning after a 10 hr fast as previously described (Frias, J P et al., 2000, Diabetes Care 23, 64-69; Yu, J G et al., 2002, Diabetes 51, 2968-2974). The experimental protocol was approved by the Institutional Review Board of the University of California, San Diego. Informed written consent was obtained from each subject.\nPlasma insulins were measured by radioimmune assay kit (Linco Research, St. Charles, Mo.). Plasma FFA levels were measured enzymatically using a commercially available kit (NEFA C; Wako Chemicals USA). Triglycerides were measured using the Triglyceride-SL Assay (Diagnostic Chemicals Ltd.). Cholesterol was measured using the Chol kit and Roche/Hitachi analyzer (Roche). Tissue lysates were analyzed by SDS-PAGE, western blotting and chemiluminescence and by ELISA. Signal intensities of chemiluminescence autoradiographs were densitometrically quantified using a digital Kodak 3D Imagestation and associated digital image analysis software (Kodak, New. Haven, Conn.). IL-1β, IL-12p70, IFNγ, IL-6, IL-10, Cxcl1 and TNFα levels in plasma and tissue lysates were measured using a multiplex (7-plex) ELISA (Meso Scale Discovery)."}, "[5]": {"conditions": "lean, insulin sensitive patients"}, "[6]": {"conditions": "obese, insulin resistant patients"}}}
{"molecule": "CCc1ccc(CCOc2ccc(CC3SC(=O)NC3=O)cc2)nc1", "note": "(stereo not shown) [pioglitazone]", "values": [{"measurement": "Glucose disposal, Rd", "setting": "[1]", "value": "30.6 ± 2.9", "unit": "mg/kg/min"}, {"measurement": "Fasting plasma free fatty acids", "setting": "[2]", "value": "0.69 ± 0.29", "unit": "mmol/L"}, {"measurement": "Fasting plasma glucose", "setting": "[2]", "value": "124.8 ± 4.0 ^ mg/dL"}, {"measurement": "Fasting plasma triglyceride", "setting": "[2]", "value": "108.0 ± 16.1", "unit": "mg/dL"}, {"measurement": "Glucose disposal, Rd", "setting": "[3]", "value": "5.9 ± 0.5", "unit": "mg/kg/min"}, {"measurement": "Fasting plasma free fatty acids", "setting": "[4]; [5]", "value": "414 ± 90", "unit": "µM"}, {"measurement": "Fasting plasma glucose", "setting": "[4]; [5]", "value": "87.6 ± 3.1", "unit": "mg/dL"}, {"measurement": "Fasting plasma insulin", "setting": "[4]; [5]", "value": "10.1 ± 2.2", "unit": "pmol/L"}, {"measurement": "Fasting plasma triglyceride", "setting": "[4]; [5]", "value": "76.0 ± 9.2", "unit": "mg/dL"}, {"measurement": "Fasting plasma free fatty acids", "setting": "[4]; [6]", "value": "434 ± 59", "unit": "µM"}, {"measurement": "Fasting plasma glucose", "setting": "[4]; [6]", "value": "91.7 ± 2.5", "unit": "mg/dL"}, {"measurement": "Fasting plasma insulin", "setting": "[4]; [6]", "value": "13.6 ± 1.6", "unit": "pmol/L"}, {"measurement": "Fasting plasma triglyceride", "setting": "[4]; [6]", "value": "137.7 ± 7.2", "unit": "mg/dL"}]}
